Values quoted from earlier work in US20140308726A1, “Controlling Bacterial Biofilms in Ethanol Production” (ANITOX CORPORATION, priority 2011, published 2014).
Where two headings read alike, the source gives them in different places.

Legend:
Lactobacillus [1] = details: 600 mg/L
yeast = details: 8 g/L; beet molasses batch fermentation
Lactobacillus [2] = details: 8.6 ppm Nisin combined with 0.1% Tween 20

In the case of O=C(O)CCC(=O)O [Succinic acid], the “Reduction of Lactobacillus concentrations” value (Lactobacillus [1]; by itself) is listed as 78% and the “Reduction of Lactobacillus concentrations” value (Lactobacillus [1]; in the presence of ethanol) is listed as “up to 96%”.
For CC(O)C(=O)O (centres unmarked) [lactic acid], the “Reduction of alcohol production rate” value (yeast) is given as 80% and the “Reduction of yeast viability” value (yeast) is given as 95%.
For Nisin, the “Delay of the lag phase of lactobacillus” value (Lactobacillus [2]) is listed as 12 h.
